Key:
[1] = tested on: OT-I+ CD8+ T cells; test: APC-free T cell activation with anti-CD3 and anti-CD28 antibodies, flow cytometry; type: cell-based, mouse; details: anti-CD3 and anti-CD28 or BMDC+SIINFEKL activation; 7 days; relative to DMSO
From the text: It was important to determine whether the observed effect of RGFP966 on CD8^+ T cells post-activation was due to the drug acting on T cells, on the antigen-presenting cells, or both. To do so, the effect of RGFP966 treatment on CD8^+ T cells activated was compared in parallel using either antigen-pulsed BMDCs or antibodies against CD3 and CD28. The latter method of activating T cells is free of APCs and allowed determination of whether the effect of RGFP966 required the presence of APCs.
96-well tissue culture plates were coated with 10 μg/ml α-CD3 antibodies overnight at 4° C., then washed with PBS prior to addition of OT-I^+ CD8^+ T cells (2×10^5/well) and α-CD28 antibody (2 μg/ml) (labeled as anti-CD3 and anti-CD28). OT-I^+ CD8^+ T cells from the same batch of cells were also activated in parallel on antigen-loaded BMDCs (labeled as BMDC+SIINFEKL (SEQ ID NO: 1)) were prepared as described above. T cells were activated for 7 days, with media changes on days 3 and 5, then collected for flow cytometry phenotype analysis.

[2] = tested on: OT-I+ CD8+ T cells; test: in vitro CD8+ T cell activation assay with SIINFEKL-pulsed BMDCs, flow cytometry for effector markers; type: cell-based, mouse
From the text: To screen for compounds that may inhibit epigenetic enzymes, an in vitro model of T cell activation by antigen-loaded antigen presenting cells (APCs) was used. CD8^+ T cells were harvested from OT-I T cell receptor transgenic mice. OT-I mice are transgenic for the mouse Tera-V2 and Torb-V5 genes, which form a T cell receptor that recognizes the SIINFEKL peptide (SEQ ID NO: 1) epitope of chicken ovalbumin presented in the context of the Kb MHC I molecule. This allows testing of T cell activation in response to addition of SIINFEKL peptide (SEQ ID NO: 1). The APCs used for T cell activation were bone marrow-derived dendritic cells (BMDCs) harvested from congenic H-2b-MHC haplotype C57BL/6 (B6) mice.
To set up the screen, BMDCs were harvested, irradiated, and seeded into 96-well tissue culture plates (5×10^4/well) in the presence of 200 nM SIINFEKL peptide (SEQ ID NO: 1) for antigen loading. OT-I^+ CD8^+ T cells were freshly isolated from peripheral lymphoid organs of OT-I mice and added to the BMDCs in 96-well plates (5×10^4/well). One hundred epigenetic inhibitor drugs from a custom library provided by Dr. David Fisher (Massachusetts General Hospital, Boston, MA) were added separately to individual wells for a final concentration of 10 μM or 1 μM. Negative (non-drug treated) wells were given an equivalent volume of DMSO vehicle.
The OT-I^+ CD8^+ T cells were cultured for 10 days at 37° C., with media changes at days 3, 5, and 7. After 10 days, T cells were collected from the 96-well plates and analyzed by flow cytometry for markers of cell viability, effector differentiation, cytokine secretion, and cytotoxicity.
For each marker assessed, a change of greater than two standard deviations from the mean of the negative control wells was deemed a significant change.
To validate the phenotypic changes observed with RGFP966 treatment during the screen, the in vitro activation assay was repeated to compare T cells treated with RGFP966 with vehicle-treated control cells. OT-I^+ CD8^+ T cells were activated with SIINFEKL-pulsed BMDCs as in Example 1 for 7 days, with media changes at days 3 and 5. T cells were then collected and analyzed by flow cytometry for markers of effector differentiation (CD25, PD-1), cytokine secretion (IFN-γ, TNF-α, IL-2), and cytotoxicity (granzyme B).
An additional study was done on the effects of RGFP966 on T cell expression of phenotypic markers of CD8^+ effector differentiation. T cells were treated with RGFP966 and vehicle using the in vitro activation assay and flow cytometry techniques described above. OT-I^+ CD8^+ T cells were activated with SIINFEKL-pulsed BMDCs (see above) for 7 days, with media changes at days 3 and 5. T cells were collected and analyzed by flow cytometry for markers of effector differentiation (CD25, PD-1), cytokine secretion (IFN-γ, TNF-α, IL-2), and cytotoxicity (granzyme B).
OT-I^+ CD8^+ T cells were activated with antigen-pulsed BMDCs as described above, and dosed with RGFP966 for different durations of time as depicted in the schematic diagram of FIG. 7A: dose duration A of RGFP966 exposure was from day 0 to day 7 of co-culture: dose duration B of RGFP966 exposure was from day 3 to day 7 of co-culture: dose duration C of RGFP966 exposure was from day 5 to day 7 of co-culture: dose duration D of RGFP966 exposure was from day 0 to day 3 of co-culture: dose duration E of RGFP966 exposure was from day 0 to day 5 of co-culture. These time windows (dose durations A-E) correspond roughly to the early (day 0 to 3), mid-(day 3 to 5), and late (day 5 to 7) phases of T cell activation described in the literature.
T cells were thoroughly washed with culture media during media changes at a transition point (i.e. drug to no drug or vice versa). T cells in samples D and E (light gray arrows) were re-suspended in conditioned media from parallel cultures of DMSO vehicle-treated T cells in order to maintain similar levels of T cell activating cytokines in the media. […]

[3] = 10 μM, 7 days activation, relative to DMSO-treated cells

## Nc1cc(F)ccc1NC(=O)/C=C/c1cnn(C/C=C/c2ccccc2)c1 [RGFP966]
[1]
  T cell effector phenotype (CD25, granzyme B, IFN-γ, TNF-α, IL-2): augmented their T cell effector phenotype across both methods of T cell activation
[2]; 10 μM compared with 1 μM or vehicle, FIG. 2J
  TNF-α expression measured in pg/mL: increased expression of the activation marker TNF-α
[2]; [3]
  CD25 expression: higher levels
  IFN-γ expression: higher levels
  IL-2 expression: higher levels
  PD-1 expression: higher levels
  TNF-α expression: higher levels
  granzyme B expression: more of the cytotoxic effector protein granzyme B
[2]; 10 μM, exposure day 0 to 3 or day 0 to 5, relative to all 7 days
  expression of CD25 and TNF-α when the drug is washed out midway: did not reduce the expression of CD25 and TNF-α
[2]; 10 μM, exposure from day 3 or day 5 to day 7
  expression of markers of T cell activation (CD25, TNF-α) when dosing starts at later time points: reduce the expression of markers of T cell activation
[2]; 10 μM, flow cytometry, FIG. 2A, vs vehicle
  expression of CD44 and CD62L: high expression of CD62L and intermediate to high expression of CD44
[2]; 10 μM, flow cytometry, FIG. 2B, vs vehicle
  CD107a positive cells: many more CD107a positive cells than the vehicle controls
[2]; 10 μM, flow cytometry, FIG. 2C, vs untreated
  TNF-α positive cells: larger number of TNF-α positive cells than the untreated T cells
[2]; 10 μM, screen of HDAC inhibitors
  effector phenotype of CD8+ T cells in the secondary screen: consistently augmented the effector phenotype
[2]; in vitro activation, titration 0, 1, 3, 5 μM
  dose sufficient to augment the effector phenotype of CD8+ T cells: 3 µM
[2]; titration 0, 1, 3, 5 μM, 7 days
  dose at which the dose-dependent augmentation of the T cell effector phenotype begins: greater than 1 μM
[2]; with increasing drug dose, titration 0, 1, 3, 5 μM
  percentage of actively proliferating cells measured by Ki-67 expression: reduction in the percentage of actively proliferating cells

From patent US12440451B2, “Compositions and methods using an epigenetic inhibitor” (DANA-FARBER CANCER INSTITUTE, INC., priority 2017, dated 2025)
